Test results from patent US12544377B2, “Compounds, compositions and methods of treating or preventing acute lung injury” (Yale University, priority 2017, dated 2026).
Entries after “also recorded” stand apart in the source; their conditions may differ.

Assays:
[1] = system: LPS-induced lung injury; assay: LPS-induced lung injury in mice; assay type: in vivo; details: for difference between HS-DKO and WT control mice in permeability and edema, LPS-induced injury: mice fed diet containing BHA
Protocol: Mice were anesthetized with ketamine/Xylazine (1 gm/kg and 100 mg/kg) and were allowed to inhaled 50 μl of LPS (1 mg/ml) placed as droplets on nares. Mice postures were maintained upright. Twenty-two hours after the induction of injury, 100 μl of FITC-labeled albumin (10 mg/ml) were injected via retro-orbital vein, and 24 hours after the induction of injury, mice were euthanized by exsanguination. To obtain bronchoalveolar lavage fluid, 1 ml of PBS was instilled into lungs and retrieved a via a tracheal catheter. In some experiments, mice were first fed with antioxidant BHA in food (Harlan Laboratory Services) for 7 days before the induction of lung injury.

[2] = system: HCl-induced lung injury; assay: HCl (acid aspiration)-induced lung injury in mice; assay type: in vivo; details: for pulmonary permeability, HCl-induced lung injury, treatment after injury: six hours after injury; for lung permeability, HCl-induced lung injury, preventative treatment: 1.5 mg/Kg intra-nasal 0.5 hour before HCl (0.05 M); for survival, HCl-induced lung injury, preventative treatment: 1.5 mg/Kg intra-nasal 0.5 hour before HCl (0.1 M); for HCl-induced acute lung injury / survival of mice: FIG. 15
Protocol: Mice were anaesthetized by ketamine/Xylazine ([…] and 100 mg/kg) and were suspended vertically from their incisors on a custom-made mount for orotracheal instillation. A 22 G catheter (Jelco, Smiths Medical) was guided 1.5 cm below the vocal cords, and 2.5 μl/g of 0.05 M HCl was instilled. Two hours after the induction of injury, 100 μl of FITC-labeled albumin (10 mg/ml) was injected via retro-orbital vein. Measurements were made 6 hours after the induction of injury. Control animals received saline instead of HCl in the same manner. In survival experiments, mice received 2.5 μl/g of 0.1 M HCl orotracheally and the observation period was extended up to 30 h.

[3] = system: bleomycin-induced lung fibrosis; assay: Bleomycin-induced lung fibrosis in mice (hydroxyproline levels); assay type: in vivo; details: 0.05 unit bleomycin once, one week later 60 mg/kg orally for five days
Excerpt: A long detrimental effect of ALI is fibrosis. […] A bleomycin-induced lung fibrosis model was used in this study: Gan, et al., 2012, Nat. Cell Biol. 14:686.

[4] = system: mouse neutrophils; assay: ROS release assay in mouse neutrophils stimulated with fMLP; details: pretreated 10 min before fMLP (1 μM)
Protocol: Mice were euthanized in a CO2 chamber according to approved protocol, bone marrow was harvested from long bones of the mice, red blood cells (RBCs) were lysed with ACK buffer (155 mM NH4Cl, 10 mM KHCO3 and 127 μM EDTA), the cells were layered on a discontinuous Percoll gradient composed of 81%, 62% and 45% Percoll layers, and the cells were isolated from the interphase between 81% and 62% Percoll layers. Cells were washed in HBSS and used for various assays.
Neutrophils were suspended in a reaction mixture (0.25% BSA in HBSS with Ca^2+ and Mg^2+, 10 mM Isoluminol, 100 μ/ml HRP), distributed cells in the well of a 96 well plate, and stimulated with fMLP (10 μM). Isoluminol-enhanced chemiluminescence was recorded continuously in a plate reader (Perkin Elmer).

[5] = system: human neutrophils; assay: ROS production assay in human neutrophils stimulated with fMLP; details: fMLP (100 nM), 20 nM pazopanib
Protocol: One day after lung injury induction, lung permeability was determined. […] Six hours after lung injury induction, lung permeability (FIG. 12D) and histology (FIG. 12E) were examined. […] Data from one experiment are presented as mean±sem (Student t-Test, *p<0.05, n=5). […] Six hours after lung injury induction, lung permeability were examined. […] Data from one experiment are presented as mean±sem (Student t-Test, *p<0.05, n=5).

[6] = system: p47phox Ser-208 phosphorylation in neutrophils; assay: Western analysis of fMLP-stimulated neutrophils (phospho-Ser-208 p47phox, MAP3K3 protein); details: for p47phox phosphorylation at Ser-208 in neutrophils: pretreated 10 min before fMLP (1 μM), phospho-specific antibody
Protocol: One day after lung injury induction, lung permeability (FIG. 5D) and histology (FIG. 5E) were examined. […] The C57Bl mice were treated as above and their survival was analyzed by the Mantel-Cox Log-Rank test.

[7] = 1.5 mg/Kg intra-nasal 1 h after HCl (0.05 M)

COc1ccc(O)c(C(C)(C)C)c1 [BHA, butylated hydroxyanisole]
pazopanib's effect on lung permeability in mice fed BHA ([1]; chew containing BHA, 60 mg/Kg/day pazopanib via gavage, LPS): abrogates pazopanib's effect on lung permeability | difference between HS-DKO and WT control mice in permeability and edema, LPS-induced injury [1]: abrogates the difference | difference between HS-DKO and WT control mice in permeability and edema, LPS-induced injury ([1]; listed as butylated hydroxyanisole (BHA)): dissipated

NC1(c2ccc(-c3nc4ccn5c(=O)[nH]nc5c4cc3-c3ccccc3)cc2)CCC1 [MK-2206, 8-[4-(1-Aminocyclobutyl)phenyl]-9-phenyl-2H-[1,2,4]triazolo[3,4-f][1,6]naphthyridin-3-one]
effect of pazopanib on permeability in LPS-injured lungs in presence of AKT inhibitor ([1]; MK-2206 10 mg/Kg with or without 60 mg/Kg/day pazopanib via gavage): abrogates the effect of pazopanib on permeability

Cc1ccc(NC(=O)c2ccc(CN3CCN(C)CC3)cc2)cc1Nc1nccc(-c2cccnc2)n1 [imatinib, 4-[(4-methylpiperazin-1-yl)methyl]-N-(4-methyl-3-{[4-(pyridin-3-yl)pyrimidin-2-yl]amino}phenyl)benzamide]
pulmonary permeability, HCl-induced lung injury, treatment after injury [2, 7]: ineffective in reducing lung permeability; also recorded: does not attenuate HCl-induced lung injury | pulmonary permeability, HCl-induced lung injury, treatment after injury ([2]; 1.5 mg/Kg intra-nasal 1 h after HCl (0.05 M), listed as Imatinib): trend of aggravation of the injury

Cc1ccc(Nc2nccc(N(C)c3ccc4c(C)n(C)nc4c3)n2)cc1S(N)(=O)=O [pazopanib, 5-((4-((2,3-dimethyl-2H-indazol-6-yl)(methyl)amino)pyrimidin-2-yl)amino)-2-methylbenzenesulfonamide]
mortality, LPS-induced lung injury, therapeutic modality ([1]; 1.5 mg/Kg intra-nasal 24 h after LPS): reduced mortality; also recorded: therapeutic treatment of pazopanib reduces mortality | mortality, LPS-induced lung injury, prophylactic modality ([1]; 60 mg/Kg/day via gavage two days before injury): reduces mortality | lung injury in mice lacking MEKK2/3 (HS-DKO), LPS ([1]; HS-DKO mice, 60 mg/Kg/day via gavage, FIGS. 12C-12D): no effects on lung injury | AKT phosphorylation in LPS-injured HS-DKO lungs ([1]; HS-DKO mice, FIG. 13E): little effect on AKT phosphorylation | alveolar wall thickening and edema (histology), LPS-induced lung injury ([1]; WT C57Bl mice, 60 mg/Kg/day via gavage from two days before LPS): reduced | pulmonary permeability, LPS-induced lung injury ([1]; WT C57Bl mice, 60 mg/Kg/day via gavage from two days before LPS, one day after injury, 60 mg/kg/day): reduced pulmonary permeability; also recorded: attenuates LPS-induced lung injury | AKT phosphorylation in LPS-injured lungs ([1]; WT mice, FIG. 13D): increased AKT phosphorylation | lung permeability, HCl-induced lung injury, preventative treatment [2]: pretreatment attenuates HCl-induced lung injury | lung permeability, HCl-induced lung injury, preventative treatment ([2]; listed as Pazopanib): effective in reduction of permeability | survival, HCl-induced lung injury, preventative treatment [2]: pretreatment reduces mortality | survival, HCl-induced lung injury, preventative treatment ([2]; listed as Pazopanib): extending survival | alveolar wall thickening and edema (histology), HCl-induced lung injury [2, 7]: decreased | pulmonary permeability, HCl-induced lung injury, treatment after injury [2, 7]: decreased pulmonary permeability; also recorded: attenuates HCl-induced lung injury | survival, HCl-induced lung injury, treatment after injury ([2]; 2.5 mg/Kg intra-nasal 1 h after HCl (0.1 M)): significantly extended the survival; also recorded: pazopanib treatment reduces mortality | lung injury (permeability, survival) in mice lacking p47phox ([2]; p47phox-deficient mice, FIGS. 16C & 16E): showed no effects; also recorded: abrogated the therapeutic effect of pazopanib | lung fibrosis (levels of hydroxyproline) [3]: inhibits bleomycin-induced lung fibrosis | lung fibrosis (levels of hydroxyproline) ([3]; listed as Pazopanib): inhibit lung fibrosis | ROS production from WT mouse neutrophils [4]: led to increases in the ROS production; also recorded: increases ROS release from neutrophils | ROS production from human neutrophils [5]: increases ROS production from human neutrophils | increase in MAP3K3 protein content induced by fMLP ([6]; neutrophils, fMLP): abrogated increase in MAP3K3 protein content | p47phox phosphorylation at Ser-208 in neutrophils [6]: inhibits phosphorylation of Ser-208 | p47phox phosphorylation at Ser-208 in neutrophils ([6]; listed as Pazopanib): inhibit

Avastin: Avastin, a VEGF inhibitor; described in b209 as a neutralizing anti-VEGFR antibody (FIG. 15)
HCl-induced acute lung injury / survival of mice [2]: limited effects | HCl-induced acute lung injury / survival of mice ([2]; listed as neutralizing anti-VEGFR antibody): no effect in survival
